According to paper PMC5737711 (ACS chemical neuroscience, 2017):

Legend:
[1] = target: CD36-Aβ interaction (recombinant extracellular domain of human CD36, fibrillar hAβ 1-42) (Homo sapiens, UniProt P16671); assay: Colorimetric assay for inhibitors of Aβ-CD36 interaction; type: binding; conditions: for Activity on the CD36-Aβ interaction (screen): first evaluated at 100 μM
[2] = tested on: CD36-Aβ interaction; conditions: cited from earlier work
[3] = tested on: N9 microglia cells; conditions: cited from earlier work

Sequence of CD36-Aβ interaction (recombinant extracellular domain of human CD36, fibrillar hAβ 1-42) (P16671 30-439): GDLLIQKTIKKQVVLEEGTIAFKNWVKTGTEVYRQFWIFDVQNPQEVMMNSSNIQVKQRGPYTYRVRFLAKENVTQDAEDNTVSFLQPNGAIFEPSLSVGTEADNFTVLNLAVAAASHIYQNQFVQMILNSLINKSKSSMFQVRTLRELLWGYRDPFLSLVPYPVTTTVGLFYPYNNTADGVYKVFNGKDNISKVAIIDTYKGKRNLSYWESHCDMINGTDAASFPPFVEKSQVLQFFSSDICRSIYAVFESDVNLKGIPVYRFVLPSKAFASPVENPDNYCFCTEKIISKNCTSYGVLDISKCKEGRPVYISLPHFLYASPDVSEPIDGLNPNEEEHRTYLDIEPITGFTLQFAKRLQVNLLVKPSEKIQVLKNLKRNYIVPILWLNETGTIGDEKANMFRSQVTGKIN

COc1ccc2cc(NC(=O)C3=NO[C@H]4[C@H](O)C=C[C@@H](O)[C@@]4(O)C3)c(=O)oc2c1OC [Compound 1, Trichodermamide A]
Activity on the CD36-Aβ interaction (screen) [1]: lacked activity

COc1ccc2cc(NC(=O)C3=NO[C@H]4[C@H](O)C=C[C@@H](Cl)[C@@]4(O)C3)c(=O)oc2c1OC [Compound 2, Trichodermamide B]
Activity on the CD36-Aβ interaction (screen) [1]: lacked activity

C[C@H]1[C@H](C)CC[C@]2(C(=O)O)CC[C@]3(C)C(=CC[C@@H]4[C@@]5(C)CC[C@H](O)C(C)(C)[C@@H]5CC[C@]43C)[C@H]12 [ursolic acid]
Inhibition of CD36-Aβ interaction in a cell-based assay [2]: inhibitor of CD36-Aβ interaction
Mode of inhibition of the interaction CD36-Aβ ([1]; from dose response profile): competitive inhibitor
Effect on production of ROS induced by Aβ [3]: inhibits the production of ROS
